Results on twelve compounds are retold here after US20080255206A1, “Rxr Agonists and Antagonists, Alone or in Combination with Ppar Ligands, in the Treatment of Metabolic and Cardiovascular Diseases” (priority 2005, published 2008).

pEC50, pIC50: −log10 of the molar value.

For assay [1], the target named is T1, RXRγ (Homo sapiens, UniProt P48443).
T1 sequence (P48443 1-463): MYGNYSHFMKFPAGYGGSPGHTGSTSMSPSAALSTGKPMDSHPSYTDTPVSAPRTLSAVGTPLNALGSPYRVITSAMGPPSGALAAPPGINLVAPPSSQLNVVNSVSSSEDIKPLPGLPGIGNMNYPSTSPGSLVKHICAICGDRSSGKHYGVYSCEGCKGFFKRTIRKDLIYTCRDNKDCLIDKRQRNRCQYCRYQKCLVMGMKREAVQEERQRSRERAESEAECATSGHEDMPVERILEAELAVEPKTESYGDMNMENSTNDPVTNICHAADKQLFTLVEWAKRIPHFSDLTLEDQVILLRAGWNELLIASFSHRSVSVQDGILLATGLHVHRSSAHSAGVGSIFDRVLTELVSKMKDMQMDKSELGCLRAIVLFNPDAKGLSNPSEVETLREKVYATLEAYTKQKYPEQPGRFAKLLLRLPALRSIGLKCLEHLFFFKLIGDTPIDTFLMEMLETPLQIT
In words: Retinoid activation assay, RXRγ (Schneider SL-3 cells, luciferase reporter). It counts as cell-based. The conditions noted are these: read-out: Activation EC50 RXR γ. The method, then:
(§1) Full length RXR cDNA is used for transfection. As reporter system, the luciferase gene is used in a construct with three copies of a RXR response element from rat CRBP gene, (formerly RARE from betaRAR gene), fused to alcoholdehydrogenase gene promoter in the plasmid pGL2-basic. Schneider SL-3 cells from Drosophila are transiently transfected 3-4 h before the experiment by the Ca-phosphate-DNA coprecipitation method. […] At the end of the incubation, the cell supernatants are assayed for luciferase activity. Results are given as EC50 (nM), the concentration leading to half-maximal activation.
On the technique in general: In a reporter assay the amount or activity of a reporter protein is the signal.

A further assay deals with T2, RARγ (Homo sapiens, UniProt P13631).
T2 construct: The DEF domains of RAR's and the full length RXR's, expressed in E.coli; made in house; host or cells: E. coli
T2 sequence (P13631 185-419 limits assumed): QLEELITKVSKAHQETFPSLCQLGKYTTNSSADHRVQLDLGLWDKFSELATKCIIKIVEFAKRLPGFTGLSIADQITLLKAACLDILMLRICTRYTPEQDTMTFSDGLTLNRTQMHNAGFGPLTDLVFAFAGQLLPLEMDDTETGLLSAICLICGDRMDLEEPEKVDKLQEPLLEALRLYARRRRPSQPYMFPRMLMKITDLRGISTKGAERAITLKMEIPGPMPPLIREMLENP
The experiment in a line: Retinoid binding assay, RARγ. Conditions: read-out: Binding Affinity IC50 RAR γ. An excerpt:
(§2) The DEF domains of RAR's and the full length RXR's, expressed in E.coli, are used to measure competitive retinoid binding. […] 9-cis retinoic acid (for RXR's), respectively. […] Separation of bound from free radioactivity is achieved by charcoal/dextran (RAR's) or by desalting columns (RXR's). […] Retinoid Activation Assays

The target of a further assay is T3, RXRα (Homo sapiens, UniProt P19793).
T3 sequence (P19793 1-462): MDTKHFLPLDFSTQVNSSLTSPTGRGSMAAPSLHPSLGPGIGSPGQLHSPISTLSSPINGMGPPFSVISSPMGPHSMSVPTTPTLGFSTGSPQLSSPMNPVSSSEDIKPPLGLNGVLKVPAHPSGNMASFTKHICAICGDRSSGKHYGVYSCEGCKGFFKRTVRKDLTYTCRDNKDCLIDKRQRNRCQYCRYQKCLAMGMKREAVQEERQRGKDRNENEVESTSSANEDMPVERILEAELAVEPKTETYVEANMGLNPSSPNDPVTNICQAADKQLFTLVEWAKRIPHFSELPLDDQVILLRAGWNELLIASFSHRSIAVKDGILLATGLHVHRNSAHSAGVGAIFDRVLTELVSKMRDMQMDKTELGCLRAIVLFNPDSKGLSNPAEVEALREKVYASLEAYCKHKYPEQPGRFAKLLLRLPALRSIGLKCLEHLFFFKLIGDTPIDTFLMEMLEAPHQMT
In words: Retinoid activation assay, RXRα (Schneider SL-3 cells, luciferase reporter). It counts as cell-based. The conditions noted are these: read-out: Activation EC50 RXR α. The method, then: as §1

Assay [2] has as its target T1, RXRγ. In words: Retinoid binding assay, RXRγ. Also noted: made in house; host or cells: E. coli. Conditions: [3H] 9-cis retinoic acid 20 nM; read-out: Binding Affinity IC50 RXR γ.
Source text: as §2

The next assay has as its target T4, RARβ (Homo sapiens, UniProt P10826).
T4 sequence (P10826 183-417 limits assumed): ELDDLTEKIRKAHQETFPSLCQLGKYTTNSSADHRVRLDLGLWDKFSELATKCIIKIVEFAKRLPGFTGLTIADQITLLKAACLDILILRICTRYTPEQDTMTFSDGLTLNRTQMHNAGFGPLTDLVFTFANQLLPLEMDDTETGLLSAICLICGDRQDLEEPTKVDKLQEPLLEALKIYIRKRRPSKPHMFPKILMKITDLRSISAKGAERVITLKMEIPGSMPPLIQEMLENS
The experiment in a line: Retinoid binding assay, RARβ. Further details: The DEF domains of RAR's and the full length RXR's, expressed in E.coli; made in house; host or cells: E. coli. Conditions: read-out: Binding Affinity IC50 RAR β.
Source text: as §2

The target of the next assay is T5, PPARγ/RXRα Heterodimer (Homo sapiens, UniProt P19793).
T5 construct: co-transfected with plasmids expressing the full length RXR heteropartner receptor; expressed in transfected cells
T5 sequence (P19793 1-462): T3 sequence (P19793 1-462)
T5 sequence (P37231 1-505 partner): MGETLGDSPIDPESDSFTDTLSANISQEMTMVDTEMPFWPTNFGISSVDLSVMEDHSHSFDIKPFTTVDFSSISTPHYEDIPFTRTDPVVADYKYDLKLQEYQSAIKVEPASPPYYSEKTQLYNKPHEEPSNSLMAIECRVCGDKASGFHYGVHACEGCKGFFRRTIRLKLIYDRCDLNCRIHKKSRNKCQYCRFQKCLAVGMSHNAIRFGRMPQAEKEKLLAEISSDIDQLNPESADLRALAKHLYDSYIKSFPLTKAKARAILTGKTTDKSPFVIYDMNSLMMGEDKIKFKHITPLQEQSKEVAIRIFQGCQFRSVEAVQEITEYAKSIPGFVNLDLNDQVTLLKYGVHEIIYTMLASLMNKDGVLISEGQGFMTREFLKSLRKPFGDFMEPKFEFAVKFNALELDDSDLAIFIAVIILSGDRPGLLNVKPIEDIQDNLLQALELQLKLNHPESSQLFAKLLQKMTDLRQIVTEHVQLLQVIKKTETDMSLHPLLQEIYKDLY
The experiment in a line: PPARγ/RXRα heterodimer activation (transactivation) assay. It counts as cell-based. From the text: Nuclear hormone receptor (NHR) ligand dependent transcriptional transactivation assay.
Heterodimer reporter assays are potentially more important selection criteria for synthetic agonistic NHR ligands as they embody a more natural situation. Basically plasmids expressing the recombinant full length NHR are co-transfected with plasmids expressing the full length RXR heteropartner receptor and a reporter plasmid containing several copies of the natural responsive elements for the respective NHR driving the luciferase reporter gene.

In general, pEC50 refers to −log10 of the EC50, conventionally taken in molar units. As a reminder, the pIC50 is the IC50 on a negative log10 scale, so that one unit is a factor of ten. `CC(/C=C/C1=C(c2ccc3c(c2)C(C)(C)CCC3(C)C)CCCC1)=C\C(=O)O` [Compound 6, (2E,4E)-3-Methyl-5-[2-(5,5,8,8-tetramethyl-5,6,7,8-tetrahydro-naphthalen-2-yl)-cyclohex-1-enyl]-penta-2,4-dienoic acid]: the pEC50 at RXRγ [1] was 6.85; at RXRα, 7.72. The negative-log IC50 (pIC50) was below 5.00 on RARγ, 6.62 on RXRγ [2] and below 5.00 at RARβ.
Turning to `CCC1(CC)CCC(C)(C)c2cc(\C(C)=C/C=C/C(C)=C/C(=O)O)ccc21` [Compound 24, (2E,4E,6Z)-7-(5,5-Diethyl-8,8-dimethyl-5,6,7,8-tetrahydro-naphthalen-2-yl)-3-methyl-octa-2,4,6-trienoic acid], the pEC50 is at most 5.00 at RXRγ [1], at most 5.00 at RXRα and 8.46 at PPARγ/RXRα Heterodimer. The negative-log IC50 (pIC50) was 7.48 on RARγ, 6.18 on RXRγ [2] and 7.70 on RARβ.
For the compound `CCCCOc1c(\C(C)=C/C=C/C(C)=C/C(=O)O)cc(C(C)(C)C)cc1C(C)(C)C` [Compound 15, (2E,4E,6Z)-7-[2-butoxy-3,5-bis(1,1-dimethylethyl)phenyl]-3-methyl-2,4,6-octatrienoic acid], the negative logarithm of the EC50 (pEC50) at RXRγ [1] was at most 5.00; on RXRα it was at most 5.00; at PPARγ/RXRα Heterodimer, below 5.00. Moreover, the pIC50 on RARγ is 5.57; on RXRγ [2], 7.33; at RARβ, below 5.00.
In the case of `CC1=C(/C=C/c2sccc2/C=C/C(C)=C/C(=O)O)C(C)(C)CCC1` [Compound 5, (2E,4E)-3-Methyl-5-[2-[(E)-2-(2,6,6-trimethyl-1-cyclohexen-1-yl)ethenyl]-3-thienyl]-2,4-pentadienoic acid], the values for the pEC50 on RXRγ [1], on RXRα and at PPARγ/RXRα Heterodimer were at most 5.00, 9.10 and 8.82, respectively. Moreover, the pIC50 at RARγ was 5.28; on RXRγ [2], 6.80; at RARβ it was 6.00.
In the case of `CCCCOc1c([C@@H]2C[C@@H]2/C=C/C(C)=C/C(=O)O)cc(C(C)(C)C)cc1C(C)(C)C` (racemic) [Compound 16, (2E,4E)-(1RS,2RS)-5-[2-(3,5-Di-tert-butyl-2-butoxy-phenyl)-cyclopropyl]-3-methyl-penta-2,4-dienoic acid], the pEC50 on RXRγ [1] was at most 5.00; at RXRα it was at most 5.00; at PPARγ/RXRα Heterodimer, below 5.00. Further, the pIC50 on RARγ is below 5.00; at RXRγ [2], 7.09; at RARβ it was below 5.00.
Consider `CC1=C(/C=C/C2=C(/C=C/C(C)=C/C(=O)O)CCC2)C(C)(C)CCC1` [Compound 14, (2E,4E)-3-Methyl-5-[2-[(E)-2-(2,6,6-trimethyl-1-cyclohexen-1-yl)ethenyl]-1-cyclopenten-1-yl]-2,4-pentadienoic acid], for which the pEC50 was 7.30 on RXRγ [1], 8.22 on RXRα and 8.15 on PPARγ/RXRα Heterodimer. Besides, the pIC50 at RXRγ [2] was 6.85.
For `CC1=C(/C=C/C2=C(/C=C/C(C)=C/C(=O)O)CCCCC2)C(C)(C)CCC1` [Compound 1, (2E,4E)-3-methyl-5-[2-[(E)-2-(2,6,6-trimethyl-1-cyclohexen-1-yl)ethenyl]-1-cyclohepten-1-yl]-2,4-pentadienoic acid], the pEC50 at RXRγ [1] is at most 5.00; at RXRα, 8.85; on PPARγ/RXRα Heterodimer, 7.15. Further, the pIC50 at RARγ is below 5.00; on RXRγ [2], 6.82; on RARβ, below 5.00.
For the compound `CCOc1c(\C(C)=C/C=C/C(C)=C/C(=O)O)cc(C(C)(C)C)cc1C(C)(C)C` [Compound 21, (2E,4E,6Z)-7-[3,5-Bis(1,1-dimethylethyl)-2-ethoxyphenyl]-3-methyl-2,4,6-octatrienoic acid/ethyl ester], the pEC50 on RXRγ [1] is at most 5.00; at RXRα it was at most 5.00; at PPARγ/RXRα Heterodimer it was 8.90. Moreover, the results for the pIC50 at RARγ, on RXRγ [2] and at RARβ were below 5.00, 7.24 and below 5.00, respectively.
In the case of `C/C(=C/C=C/C(C)=C/C(=O)O)c1cc2c(cc1C)C(C)(C)CCCC2` [Compound 13, (2E,4E,6Z)-3-Methyl-7-(3,5,5,-trimethyl-6,7,8,9-tetrahydro-5H-benzocyclohepten-2-yl)-octa-2,4,6-trienoic acid], the pEC50 was 6.40 at RXRγ [1], 8.82 at RXRα and 7.64 at PPARγ/RXRα Heterodimer. Moreover, the pIC50 is 5.28 at RARγ and 6.83 on RXRγ [2].
Take `CC(/C=C/[C@@H]1C[C@@H]1c1ccc2c(c1)C(C)(C)CCC2(C)C)=C\C(=O)O` (racemic) [Compound 4, (2E,4E)-3-methyl-5-[(1RS,2RS)-2-(5,5,8,8-tetramethyl-5,6,7,8-tetrahydro-naphthalen-2-yl)-cyclopropyl]-penta-2,4-dienoic acid]: the pEC50 was 7.30 on RXRγ [1] and 8.46 on RXRα. Moreover, the pIC50 on RARγ was 5.12; on RXRγ [2], 6.90; at RARβ it was below 5.00.
As to `CC(/C=C/c1sccc1-c1ccc2c(c1)C(C)(C)CCC2(C)C)=C\C(=O)O` [Compound 9], the results for the pEC50 at RXRγ [1], on RXRα and at PPARγ/RXRα Heterodimer were 7.05, 8.60 and 7.42, respectively. Besides, the pIC50 at RARγ is 5.44; at RXRγ [2] it was 6.64; at RARβ, 5.42.
For the compound `CC(/C=C/c1ccccc1-c1ccc2c(c1)C(C)(C)CCC2(C)C)=C\C(=O)O` [Compound 7, (2E,4E)-3-methyl-5-[2-(5,5,8,8-tetramethyl-5,6,7,8-tetrahydro-naphthalen-2-yl)-phenyl]-penta-2,4-dienoic acid], the pEC50 on RXRγ [1] is 6.40; at RXRα, 8.22. Further, the negative logarithm of the IC50 (pIC50) is 5.20 at RARγ, 6.01 on RXRγ [2] and below 5.00 at RARβ.
